Tests used:
[1] = system: gram-positive organisms (susceptible and resistant strains); test: in vitro antibacterial activity (MIC); format: cell-based
Experimental: In addition, the minimum inhibitory concentration (MIC) value for daptomycin against susceptible strains is typically 4-fold lower than that of vancomycin. […] Thus, in a preferred embodiment, purified daptomycin, lipopeptide antibiotic, or pharmaceutical compositions thereof are administered according to the methods of this invention to a patient in need of rapidly acting antibiotic therapy.

[2] = size of daptomycin micelles by light scatter (Zetasizer); format: physicochemical; details: for micelle size: 1 mg/mL, pH approximately 4.0 in water, light scatter
Experimental: The daptomycin micelles have an average size of 5.4 nm (54 A).
Daptomycin micelles were produced using daptomycin at a concentration of 1.0 mg/mL in water at pH 4.0 at 25° C. The size of a daptomycin micelle was measured using a Zetasizer™ (Malvern Instruments, Model 3000 HS). The count rate of 36.3, the cell type was a capillary cell, the detection angle (deg) was 90°, and the wavelength (nm) was 633.

[3] = critical micellar concentration (cmc) of daptomycin; format: physicochemical
From the text: Micelle formation causes changes in several bulk physical properties of a solution including changes in osmotic pressure, turbidity, electrical conductance, surface tension, co-ion and counterion activities (in the case of ionic, amphipathic molecules), refractive index, UV and NMR spectra, partial molar volume, viscosity, diffusion coefficient and dye solubilization. The cmc can be determined by measuring one or more of these micelle-dependent physical properties as a function of concentration of the amphipathic molecule. The size and shape of micelles can be determined by dynamic laser light scattering, ultracentrifugation, viscosity and/or low-angle X-ray scattering experiments. Micelles can also exist in liquid crystal phases.
In another embodiment of the invention, the pH of a solution comprising a lipopeptide is manipulated to influence the cmc of the lipopeptide. In a preferred embodiment, the lipopeptide is daptomycin or a daptomycin-related molecule, such as those described supra. In an even more preferred embodiment, the lipopeptide is daptomycin. In one embodiment, the pH is manipulated so that the concentration of a lipopeptide is higher than the cmc at one pH and is lower than the cmc at another pH. For instance, for daptomycin, the cmc at pH 4.0 in water at a temperature of 20-25° C. was much lower than at pH 6.0 or 7.5. […]

CCCCCCCCCC(=O)N[C@@H](Cc1c[nH]c2ccccc12)C(=O)N[C@H](CC(N)=O)C(=O)N[C@@H](CC(=O)O)C(=O)N[C@@H]1C(=O)NCC(=O)N[C@@H](CCCN)C(=O)N[C@@H](CC(=O)O)C(=O)N[C@H](C)C(=O)N[C@@H](CC(=O)O)C(=O)NCC(=O)N[C@H](CO)C(=O)N[C@@H]([C@H](C)CC(=O)O)C(=O)N[C@@H](CC(=O)c2ccccc2N)C(=O)O[C@@H]1C [daptomycin]
antibacterial activity against classically resistant strains relative to classically susceptible strains ([1]; in vitro experiments): comparable
MIC, fold lower than that of vancomycin ([1]; susceptible strains): ~4 fold
diameter of the micelle ([2]; 1.0 mg/mL in water, pH 4.0, 25° C., Zetasizer): 54 A
micelle size [2]: 5.4 nm
micelle size ([2]; listed as Daptomycin): approximately 5.4 nm
aggregation state (monomeric or micellar) ([3]; 150 mg/mL daptomycin, pH 6.5, 150 mM to 300 mM NaCl, 4° C.): monomeric
critical micellar concentration (cmc) ([3]; pH 4.0 in water, 20-25° C.): approximately 400 μg/mL

Reference: patent US9358267B2, “High purity lipopeptides” (Cubist Pharmaceuticals LLC, priority 2000, dated 2016)
